The text below walks through data of ChEMBL document CHEMBL5325454, “Synthesis, anti-ferroptosis, anti-quorum sensing, antibacterial and DNA interaction studies of chromene-hydrazone derivatives” (Bioorg Med Chem, 2023).

A word on the MIC: it is the least concentration at which growth counts as inhibited. The IC50 is the midpoint of a concentration-inhibition curve.

≈ marks a conversion by molar mass, not a printed value. Calls of active or inactive are those of the source. The calls are words filed in the database; no cut-off is given here. A value given as a limit tells only on which side of the number the result lay.

Experiment [1] can be described thus: Inhibition of quorum sensing system in Vibrio harveyi BB120 assessed as reduction in luminescence incubated for 5 hrs under shaking condition by luminescence microplate reader analysis.
Experiment [2] relates to DNA. Description: Induction of Escherichia coli supercoiled pBR322 DNA cleavage assessed as cleavage of DNA into open-circular forms in presence of Copper(II)acetate incubated overnight by GelRed DNA gel staining based electrophoresis analysis. The experiment is classed as nucleic-acid assay.
Experiment [3] concerns DNA. Description: Induction of Escherichia coli supercoiled pBR322 DNA cleavage in absence of Cu2+ ion incubated overnight by GelRed DNA gel staining based electrophoresis analysis. The experiment is classed as nucleic-acid assay.
Experiment [4] concerns Vibrio harveyi. Description: Antibacterial activity against Vibrio harveyi BB120 assessed as inhibition of bacterial growth measured at 24 hrs by broth microdilution assay. The experiment is classed as functional. On the technique in general: Broth dilution looks for growth in wells or tubes with falling amounts of substance.
Experiment [5] relates to HaCaT. Description: Anti-ferroptotic activity against Erastin-induced ferroptosis in human HaCaT cells assessed as increase in cell viability at 5 uM preincubated with compound for 4 hrs followed by […] administration and measured after 24 hrs by MTT assay relative to control. The experiment is classed as functional. The settings on record: time 28 hrs. Background: Tetrazolium dyes change colour on reduction, which living cells bring about.

Experiment [6] concerns Vibrio harveyi. Briefly: Antibacterial activity against Vibrio harveyi BB120 assessed as inhibition of bacterial growth at 1 to 1024 ug/ml measured at 24 hrs by broth microdilution assay. The experiment is classed as functional, organism-based. The following applies: dose 1-1024 µg/ml.
In experiment [7] the test system is HaCaT. Briefly: Anti-ferroptotic activity against Erastin-induced ferroptosis in human HaCaT cells assessed as increase in cell viability at 5 uM preincubated with compound for 4 hrs followed by […] administration and measured after 24 hrs by MTT assay. The experiment is classed as functional, cell-based. The settings on record: time 28.0 hrs.
The subject of experiment [8] is Calf thymus DNA. Briefly: Binding affinity to calf thymus DNA assessed as apparent binding constant upto 30 uM by UV-Vis spectroscopic analysis. The experiment is classed as nucleic-acid assay. The following applies: Bos taurus.
Experiment [9] concerns Calf thymus DNA. Briefly: Binding affinity to calf thymus DNA assessed as hyperchromicity by UV-Vis spectroscopic analysis. The experiment is classed as nucleic-acid assay. The settings on record: Bos taurus; dose <= 30.0 µM.
Experiment [10] has as its system Vibrio harveyi. Briefly: Antibacterial activity against Vibrio harveyi BB120 assessed as inhibition of bacterial growth upto 250 uM measured at 24 hrs by broth microdilution assay. The experiment is classed as functional, organism-based.
The subject of experiment [11] is HaCaT. Briefly: Anti-ferroptotic activity against Erastin-induced ferroptosis in human HaCaT cells assessed as cell viability at 5 uM preincubated with compound for 4 hrs followed by […] administration and measured after 24 hrs by MTT assay relative to control. The following applies: time 28 hrs. The experiment is classed as functional.
Experiment [12] deals with Staphylococcus aureus. Briefly: Antibacterial activity against methicillin-resistant Staphylococcus aureus MW2 assessed as inhibition of bacterial growth measured at 24 hrs by broth microdilution assay. The experiment is classed as functional.
A further experiment concerns Escherichia coli. Briefly: Antibacterial activity against Escherichia coli assessed as inhibition of bacterial growth. The experiment is classed as functional, organism-based.
Experiment [13] deals with Staphylococcus aureus. Briefly: Antibacterial activity against methicillin-resistant Staphylococcus aureus MW2 assessed as zone of inhibition incubated overnight by disc diffusion assay. The experiment is classed as functional. In general terms: A growth-free zone around the sample is the usual read-out of agar diffusion tests.

As for `CC1(C)C=Cc2c(ccc(/C=N/NC(=O)c3ccccc3)c2O)O1`, the inhibition result in experiment [1] was “inactive”. The result in the experiment on DNA [2] was Active. Besides, the outcome in the experiment with DNA [3] was inactive. Further, the minimum inhibitory concentration (MIC) in the experiment with Vibrio harveyi [4] came out at 7.8 µM (≈ 2.51 µg/mL). For the same compound, the Activity in the experiment on HaCaT [5] turned out to be 44%.
For `CC1(C)C=Cc2c(ccc(/C=N/NC(=O)c3ccccn3)c2O)O1`, the inhibition entry in experiment [1] is “inactive”. The result with Vibrio harveyi [6] and in the experiment with DNA [3] was inactive. The result in the experiment on DNA [2] was Active. The Activity in the experiment on HaCaT [5] is 34%.
Turning to `CC1(C)C=Cc2c(ccc(/C=N/NC(=O)c3ccncc3)c2O)O1`, the inhibition entry in experiment [1] was “inactive”. For the same compound, the outcome with DNA [2] was Active. Besides, the result with DNA [3] was inactive. Moreover, in the experiment with Vibrio harveyi [4], the MIC was 15.6 µM (≈ 5.04 µg/mL). Moreover, the Activity in the experiment on HaCaT [5] is 34%.
Regarding `CC1(C)C=Cc2c(ccc(/C=N/NC(=O)c3ccc(Br)cc3)c2O)O1`, the inhibition result in experiment [1] was “inactive”. Also, the result with Vibrio harveyi [6] and with DNA [3] was inactive. The result with DNA [2] was Active. Further, the Activity in the experiment on HaCaT [5] was 44%.
Turning to `COc1ccc(C(=O)N/N=C/c2ccc3c(c2O)C=CC(C)(C)O3)cc1`, the inhibition entry in experiment [1] was “inactive”. In addition, the outcome with Vibrio harveyi [6] and in the experiment on DNA [3] was inactive. Further, the result with DNA [2] was Active. Besides, the Activity in the experiment on HaCaT [5] was found to be 44%.
Regarding `CC(=O)N/N=C/c1ccc2c(c1O)C=CC(C)(C)O2`, the inhibition result in experiment [1] is “inactive”. For the same compound, the outcome with DNA [2] and in the experiment with HaCaT [7] was Active. For the same compound, in the experiment on DNA [3], the outcome was inactive. Moreover, the MIC in the experiment with Vibrio harveyi [4] came to 40 µM (≈ 10.4 µg/mL).
As to `CC1(C)C=Cc2c(ccc(/C=N/NC(=O)c3ccc(O)cc3)c2O)O1`, in experiment [1], the inhibition result is “inactive”. Besides, the outcome in the experiment with DNA [2] was Active. In the experiment with DNA [3], the result was inactive. Moreover, the MIC with Vibrio harveyi [4] amounted to 3.9 µM (≈ 1.32 µg/mL). The Activity in the experiment on HaCaT [5] was 44%.
`CC1(C)C=Cc2c(ccc(/C=N/NC(=O)c3cccnc3)c2O)O1`: the inhibition entry in experiment [1] was “inactive”. Besides, in the experiment with DNA [2], the result was Active. In the experiment on DNA [3], the outcome was inactive. Besides, the MIC in the experiment with Vibrio harveyi [4] amounted to 10 µM (≈ 3.23 µg/mL). Besides, in the experiment with HaCaT [5], the Activity was 34%.
Turning to `CC1(C)C=Cc2c(ccc(/C=N/NC(=O)c3ccc(C(C)(C)C)cc3)c2O)O1`, the inhibition result in [1] is “inactive”. Further, the outcome with Vibrio harveyi [6] and with DNA [3] was inactive. For the same compound, in the experiment with DNA [2], the result was Active. In the experiment with HaCaT [5], the Activity amounted to 44%.
For `CC1(C)C=Cc2c(ccc(/C=N/NS(=O)(=O)c3ccc(C(F)(F)F)cc3)c2O)O1`, the IC50 in [1] was above 250 µM. Besides, the outcome with DNA [2] was Active. In addition, the outcome with HaCaT [7], in the experiment with DNA [3] and in the experiment on Vibrio harveyi [10] was inactive. Moreover, the Kapp with Calf thymus DNA [8] was 6.02 10^3/M. Also, the Activity result in the experiment with Calf thymus DNA [9] is “Dose-Dependent Effect”.
For `Cc1cc(C(=O)N/N=C/c2ccc3c(c2O)C=CC(C)(C)O3)ccc1[N+](=O)[O-]`, in experiment [1], the inhibition entry is “inactive”. Further, in the experiment with DNA [2], the outcome was Active. Further, in the experiment on DNA [3], the result was inactive. For the same compound, in the experiment on Vibrio harveyi [4], the MIC worked out at 62.5 µM (≈ 23.8 µg/mL). The Activity in the experiment on HaCaT [5] was determined as 34%.
In the case of `CC1(C)C=Cc2c(ccc(/C=N/NS(=O)(=O)c3ccccc3)c2O)O1`, the IC50 in [1] was determined as 22 µM. The result in the experiment on DNA [2] was Active. Also, the result in the experiment on DNA [3] and in the experiment with Vibrio harveyi [10] was inactive.
On to `CC1(C)C=Cc2c(ccc(/C=N/NC(N)=O)c2O)O1`, for which the IC50 in experiment [1] worked out at 27 µM. For the same compound, the result with DNA [2] was Active. Moreover, the result with DNA [3] and in the experiment on Vibrio harveyi [10] was inactive. In addition, the Activity is 18% in the experiment with HaCaT [11] and “Dose-Dependent Effect” in the experiment with Calf thymus DNA [9]. Further, in the experiment on Calf thymus DNA [8], the Kapp is 9.55 10^3/M.
With `CC1(C)C=Cc2c(ccc(/C=N/NC(=O)c3ccc(O)cc3O)c2O)O1`, the inhibition result in experiment [1] was “inactive”. Also, in the experiment with DNA [2], the result was Active. In addition, the results for the MIC in the experiment with Staphylococcus aureus [12] and with Vibrio harveyi [4] were 64 µg/mL (≈ 181 µM) and 10 µM (≈ 3.54 µg/mL), respectively. In addition, the outcome with DNA [3] and in the experiment with Escherichia coli was inactive. Also, the “inhibition zone (IZ)” value in the experiment on Staphylococcus aureus [13] is reported as 11 mm. The Kapp in the experiment on Calf thymus DNA [8] was 5.73 10^3/M. Moreover, the Activity result in the experiment with Calf thymus DNA [9] is “Dose-Dependent Effect”; in the experiment on HaCaT [5], 34%.
As to `CC1(C)C=Cc2c(ccc(/C=N/NC(=O)c3ccc([N+](=O)[O-])cc3)c2O)O1`, the inhibition result in experiment [1] was “inactive”. In addition, the result with Vibrio harveyi [6] and with DNA [3] was inactive. Besides, the result in the experiment with DNA [2] was Active. Moreover, the Activity in the experiment on HaCaT [5] was 34%.
Take `CC1(C)C=Cc2c(ccc(/C=N/NC(=O)c3ccc(Cl)cc3)c2O)O1`: the inhibition entry in experiment [1] is “inactive”. For the same compound, the result in the experiment on DNA [2] was Active. Also, in the experiment with DNA [3], the outcome was inactive. The MIC in the experiment with Vibrio harveyi [4] was above 250 µM. In addition, in the experiment on HaCaT [5], the Activity came out at 44%.
Take `O=c1c(O)c(-c2ccc(O)c(O)c2)oc2cc(O)ccc12` [FISETIN]: the Activity with HaCaT [5] is given as 42%.
Take `Cc1ccc(S(=O)(=O)N/N=C/c2ccc3c(c2O)C=CC(C)(C)O3)cc1`: the IC50 in experiment [1] was above 250 µM. Further, the result in the experiment with DNA [2] was Active. Also, the result with HaCaT [7], in the experiment on DNA [3] and with Vibrio harveyi [10] was inactive.
For the compound `CC1(C)C=Cc2c(ccc(/C=N/NC(N)=S)c2O)O1`, the inhibition result in experiment [1] was “inactive”. In the experiment on DNA [2], the result was Active. Also, the result in the experiment on DNA [3] was inactive. Further, the MIC with Vibrio harveyi [4] came out at 125 µM (≈ 34.7 µg/mL). Further, the Activity with HaCaT [5] came out at 54%.
Turning to `Cc1ccc(C(=O)N/N=C/c2ccc3c(c2O)C=CC(C)(C)O3)cc1`, the inhibition result in [1] was “inactive”. Moreover, the outcome in the experiment on DNA [2] was Active. For the same compound, in the experiment with DNA [3], the result was inactive. In addition, the MIC in the experiment with Vibrio harveyi [4] was above 250 µM. In the experiment on HaCaT [5], the Activity is 44%.
